The experiment addresses Cyclic GMP-AMP synthase (Mus musculus, UniProt Q8C6L5). Kind of experiment: Inhibition of mouse cGAS by ATP consumption assay.

Cyclic GMP-AMP synthase, sequence (Q8C6L5 whole entry): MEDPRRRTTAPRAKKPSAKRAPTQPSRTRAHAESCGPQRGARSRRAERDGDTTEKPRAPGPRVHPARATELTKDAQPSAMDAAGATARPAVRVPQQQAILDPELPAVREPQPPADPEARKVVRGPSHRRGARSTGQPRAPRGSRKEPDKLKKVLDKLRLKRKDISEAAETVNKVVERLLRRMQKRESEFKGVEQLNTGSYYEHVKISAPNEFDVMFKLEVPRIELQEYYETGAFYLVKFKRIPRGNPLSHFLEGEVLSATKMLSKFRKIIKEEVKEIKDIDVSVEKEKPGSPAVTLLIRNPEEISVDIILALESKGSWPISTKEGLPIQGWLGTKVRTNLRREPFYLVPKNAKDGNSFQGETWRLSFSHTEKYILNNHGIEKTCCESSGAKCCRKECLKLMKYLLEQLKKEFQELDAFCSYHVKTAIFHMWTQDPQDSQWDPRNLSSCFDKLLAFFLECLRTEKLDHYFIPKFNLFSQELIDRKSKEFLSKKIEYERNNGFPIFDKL

`CCn1nc(C)cc1C(=O)Nc1nc2cc(C(N)=O)cc(OC)c2n1C/C=C/Cn1c(NC(=O)c2cc(C)nn2CC)nc2cc(C(N)=O)cc(OCCCN3CCOCC3)c21` gave an IC50 of 270 nM.

In general, IC50 refers to the concentration that gives 50% inhibition. Low readings indicate greater potency in that assay, high ones weaker potency in that assay.

These data come from ChEMBL document CHEMBL5329150, “STING antagonists, synthesized via Povarov-Doebner type multicomponent reaction” (RSC Med Chem, 2023).
